Measured values reported in patent publication US6762052B1, “DNA sequence encoding flavin-containing monooxygenase” (priority 1993, dated 2004).
Entries after “also recorded” stand apart in the source; their conditions may differ.

How the values were obtained:
[1] = target: T1, adult human liver flavin-containing monooxygenase (form 3) (Homo sapiens, UniProt P31513, E158K); assay: N- and S-oxygenation by cDNA-expressed HLFMO 3 (solubilized protein from E. coli transformed with pTrcHLFMO 3), HPLC
T1 sequence (P31513 1-532 E158K): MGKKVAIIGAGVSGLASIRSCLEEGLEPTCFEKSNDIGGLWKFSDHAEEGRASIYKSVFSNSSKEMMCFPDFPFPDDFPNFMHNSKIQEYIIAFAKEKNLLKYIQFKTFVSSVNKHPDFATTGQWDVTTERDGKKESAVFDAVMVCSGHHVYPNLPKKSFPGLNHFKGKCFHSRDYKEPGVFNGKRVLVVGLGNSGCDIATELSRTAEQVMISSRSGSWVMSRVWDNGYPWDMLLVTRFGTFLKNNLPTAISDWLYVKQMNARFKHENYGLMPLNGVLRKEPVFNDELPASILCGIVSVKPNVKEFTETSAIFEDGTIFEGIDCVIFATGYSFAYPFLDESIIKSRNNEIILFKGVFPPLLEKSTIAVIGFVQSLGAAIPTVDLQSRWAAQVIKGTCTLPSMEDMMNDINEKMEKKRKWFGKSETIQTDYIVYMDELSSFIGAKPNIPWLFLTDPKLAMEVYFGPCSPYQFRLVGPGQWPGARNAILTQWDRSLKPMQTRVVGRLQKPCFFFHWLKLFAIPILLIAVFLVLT
Procedure: In all cases examined, product formation was directly determined by HPLC analysis of organic extracts.
Competent NM522 Escherichia coli cells were transformed with the pTrc HLFMO 3 plasmid. […] After inoculation with a fresh overnight culture of NM522 containing pTrcHLFMO 3, the culture was grown at 37° C. until Abs600 was approximately 0.5 absorbance units. Finally, IPTG (0.8 mM) was added to the culture to induce expression of protein and the culture was left to grow overnight at 37° C.
The bacterial pellet was resuspended in 5 volumes of 50 mM potassium phosphate buffer (pH 8.4) containing 1% Triton X-100, 0.1% L-, α-phosphatidylcholine (L-α-lecithin) from egg yolk, 500 μM PMSF, and 1 mM EDTA. The mixture was sonicated and then centrifuged to remove cellular debris. As a control, bacterial lysate extracts from IPTG-induced pTrc99A-transformed NM522 cells (i.e., pTrc99A without the HLFMO 3 cDNA insert) were prepared under the same conditions.
Human liver samples were obtained from the Department of Surgery (UCSF) and with a protocol from the Medical College of Wisconsin (S. Wrighton).
A typical incubation mixture (final volume 0.25 ml) contained hepatic microsomes (0.4 mg of protein) or bacterial lysate (2.3 mg of protein), NADP^+ (0.5 mM), glucose-6-phosphate (2.0 mM), glucose-6-phosphate dehydrogenase (1 IU), DETAPAC (0.8 mM) and potassium phosphate buffer (50 mM, pH 8.4). Reactions were initiated by the addition of substrate and terminated at designated times by the addition of three volumes of cold dichloromethane, mixed thoroughly and centrifuged to separate the aqueous and organic fractions. N- and S-oxide metabolic products in the resulting organic extracts were separated and quantified by HPLC. […] Thiobenzamide and thiobenzamide S-oxide were quantified with this same, HPLC system employing a mobile phase of methanol/acetonitrile/60% perchloric acid (20:80:0.016, v/v) which gave retention volumes of 2.7 and 7.0 ml, respectively. […] The major metabolites formed in the incubations were also subjected to mass spectral analysis after extraction of isolated HPLC fractions.
RPLC of the S-oxide diastereomers with a Chiracel OT chiral analytical column (25 cm×0.15 cm inner diameter, Daicel Chemical Co., New York, N.Y.) was accomplished with a Beckman system, Kratos UV detector (240 nm) and a Hewlett Packard Integrator. […] Quantification was accomplished by comparing integrated HPLC peak areas after taking into account the difference in the extinction coefficients at 240 nm. Likewise, the cis and trans S-oxide diasteromers of (+)- and (−)-2-methyl-1,-benzodithiole were separated with a Chiracel OT chiral analytical column.

Human Liver Microsomes = assay: in vitro

## CN(C)CCCCCN1c2ccccc2Sc2ccc(C(F)(F)F)cc21 [Compound 5]
[1]; 0.1 mM substrate, mean of 5 determinations ± SD
  N-oxide formation, Expressed HFLMO: 200.0 ± 45.7 pmol/min/mg of protein
[1]; 100,000×g pellet
  N-oxygenase activity in the pellet: 0.043 nmol/min/mg of protein
  share of N-oxygenase activity in the pellet: 16%
[1]; 100,000×g supernatant
  share of N-oxygenase activity in the supernatant fraction: 84%
[1]; 100,000×g supernatant of solubilized recombinant HLFMO 3 protein
  N-oxygenase activity in the supernatant fraction: 0.23 nmol/min/mg of protein
[1]; N- or S-oxide formation, for the 4-bromophenyl-1,3-oxathiolanes formation of the trans S-oxide
  Vmax, Expressed HLFMO: 0.023 nmol/min/mg of protein
[1]; human liver microsomes and solubilized protein from E. coli transformed with pTrcHLFMO 3
  substrate activity for human liver microsomes and expressed HLFMO 3, in words: better substrates; also recorded: excellent substrates
[1]; read-out: Km, Expressed HLFMO, N- or S-oxide formation, for the 4-bromophenyl-1,3-oxathiolanes formation of the trans S-oxide
  Km: 64.6 µM
Human Liver Microsomes
  Km: 6.8 µM
  N-oxide formation, Human Liver Microsomes: 252.1 ± 38.6 pmol/min/mg of protein
  S-oxide formation, Human Liver Microsomes: 32.5 ± 33.7 pmol/min/mg of protein
  Vmax, Human Liver Microsomes: 0.098 nmol/min/mg of protein
